Data taken from patent publication US9890119B2, “Indole and azaindole derivative having AMPK-activating activity” (SHIONOGI & CO., LTD., priority 2013, dated 2018).

Columns and labels:
[1] = Phototoxicity test
[2] = target: T1, Human AMPK α2β2γ1 (Homo sapiens, UniProt O43741+P54646); test: Test Example 2: evaluation of activators of AMP-activated protein kinase (mobility-shift assay, FL-Peptide 7); format: biochemical; conditions: human AMPK α2β2γ1 phosphorylated with CaMKK2; for EC150 (compound concentration showing 150% relative to the control (100%)): 25° C., 2 hours, 1% DMSO; for Emax: control = 100%, read-out: Emax (maximum rate of increase in activity within the measurement range)
T1 construct: The full length cDNAs of human AMPK β2 (NM_005399.3) and human AMPK α2 (NM_006252.3) were inserted; the full length cDNA of human AMPK γ1 (NM_002733.3) had been inserted into pET28b(+); 6xHis (N); made in house; host or cells: Escherichia coli BL21 CodonPlus (DE3)-RIL
Protocol: The full length cDNAs of human AMPK β2 (NM_005399.3) and human AMPK α2 (NM_006252.3) were inserted into the MCS1 and MCS2 of the pETDuet-1 vector to prepare a human AMPK β2 and human AMPK α2 (6× His tag at the 5′ terminus) expressing plasmid. The plasmid was contransfected with an expression plasmid, in which the full length cDNA of human AMPK γ1 (NM_002733.3) had been inserted into pET28b(+), into BL21 CodonPlus (DE3)-RIL to obtain an expression strain. The expression strain was cultured in TB medium, followed by induction with 0.5 mM IPTG, and cultured at 25° C. for 3 hours and then harvested. After ultrasonication, supernatant was collected and applied to Histrap FF column (GE) and RESOUECE Q column (GE) to prepare 12.5 mg of purified sample containing three types of subunit from 1.8 L of broth.
An expression vector, in which the full length cDNA of human CAMKK β (NM_172226.1) had been inserted into pGEX-6P-3, was transfected into BL21 Star (DE3). The expression strain was cultured in TB medium, followed by induction with 0.5 mM IPTG, and cultured at 25° C. for 3 hours and then harvested. After ultrasonication, supernatant was collected and applied to GSTrap FF column (GE) to prepare 14 mg of GST-fused CAMKK […] from 720 ml of broth.
Thus, phosphorylation treatment was carried out as pretreatment.
Human AMPK α2β2γ1 in an amount to give a conversion rate of approximately 10% by reaction for 2 hours, and CaMKK2 in an amount capable of sufficiently imparting activity to AMPK for one hour were mixed in a buffer solution consisting of a 50 mM HEPES-NaOH buffer solution (pH 7.0), 100 mM NaCl, 5 mM magnesium chloride, 0.1% bovine serum albumin, 0.2 mM sodium orthovanadate(V), 1 mM ethylene glycol-bis(2-aminoethyl ether)-N,N,N′,N′-tetraacetic acid (EGTA), 5 mM disodium β-glycerophosphate, 1 mM dithiothreitol and 0.2 mM ATP, and the obtained liquid was left to stand at 25° C. for 1 to 1.5 hours to sufficiently phosphorylate AMPK.
After that, to the enzyme liquid, which had been subjected to phosphorylation treatment, a compound dissolved in DMSO was added so as to have a 1% DMSO concentration. The obtained liquid was left to stand for 10 minutes.
To the liquid, a substrate solution consisting of a 50 mM HEPES-NaOH buffer solution (pH 7.0), 100 mM NaCl, 10 mM magnesium chloride, 0.1% bovine serum albumin, 0.2 mM sodium orthovanadate(V), 1 mM ethylene glycol-bis(2-aminoethyl ether)-N,N,N′,N′-tetraacetic acid (EGTA), 5 mM disodium β-glycerophosphate, 2 mM dithiothreitol, 0.4 mM ATP and 3 μM FL-Peptide 7 (manufactured by Caliper Life Sciences, Inc.) was added in equal amount (10 μl in total). The obtained liquid was allowed to react at 25° C. for 2 hours, and 10 μl of 20 mM EDTA was then added thereto to stop the reaction.
To detect phosphorylated fluorescent substrates, the reaction liquid was applied to a measuring device, LabChip EZ Reader II manufactured by Caliper Life Science, Inc., for detecting fluorescence by using differences in mobility due to differences in charge. The setting conditions for the device were pressure, −1.5 PSI; upstream voltage, −2250 V; downstream voltage, −400 V; post sample buffer sip time, 40 seconds; final delay, 120 seconds; and peak order, Product First.
A conversion rate was calculated from the peak heights of the resulting substrate and product. The conversion rate when not containing a compound was used as a control, and a concentration dependent curve was made by plotting the rate of increase in activity to the control at each concentration of a compound. The compound concentration showing 150% relative to the control (100%) was used as the EC 150 value, and the maximum rate of increase in activity within the measurement range was used as Emax.

T1 sequence (P54646 whole entry): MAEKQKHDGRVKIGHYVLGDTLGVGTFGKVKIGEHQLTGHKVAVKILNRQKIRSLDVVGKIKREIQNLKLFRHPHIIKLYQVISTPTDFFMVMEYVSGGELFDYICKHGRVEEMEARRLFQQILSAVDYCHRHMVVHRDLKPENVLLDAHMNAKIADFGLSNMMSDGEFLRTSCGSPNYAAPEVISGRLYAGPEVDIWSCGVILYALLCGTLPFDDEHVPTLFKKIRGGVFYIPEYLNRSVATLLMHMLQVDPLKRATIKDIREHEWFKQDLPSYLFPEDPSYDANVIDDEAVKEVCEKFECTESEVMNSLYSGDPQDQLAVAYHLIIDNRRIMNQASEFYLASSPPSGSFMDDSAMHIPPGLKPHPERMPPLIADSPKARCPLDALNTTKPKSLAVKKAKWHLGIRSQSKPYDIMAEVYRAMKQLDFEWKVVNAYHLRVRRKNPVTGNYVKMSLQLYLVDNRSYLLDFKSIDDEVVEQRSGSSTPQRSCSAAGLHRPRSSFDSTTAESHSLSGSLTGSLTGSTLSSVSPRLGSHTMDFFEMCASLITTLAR
T1 sequence (O43741 whole entry): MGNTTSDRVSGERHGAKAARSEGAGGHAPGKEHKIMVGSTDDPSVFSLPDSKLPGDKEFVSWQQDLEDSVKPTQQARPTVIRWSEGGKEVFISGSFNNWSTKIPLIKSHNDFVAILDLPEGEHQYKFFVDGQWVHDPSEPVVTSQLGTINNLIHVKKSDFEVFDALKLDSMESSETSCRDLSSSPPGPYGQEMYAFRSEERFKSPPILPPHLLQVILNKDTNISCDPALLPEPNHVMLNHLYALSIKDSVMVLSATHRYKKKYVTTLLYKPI
T1 sequence (P54619 whole entry partner): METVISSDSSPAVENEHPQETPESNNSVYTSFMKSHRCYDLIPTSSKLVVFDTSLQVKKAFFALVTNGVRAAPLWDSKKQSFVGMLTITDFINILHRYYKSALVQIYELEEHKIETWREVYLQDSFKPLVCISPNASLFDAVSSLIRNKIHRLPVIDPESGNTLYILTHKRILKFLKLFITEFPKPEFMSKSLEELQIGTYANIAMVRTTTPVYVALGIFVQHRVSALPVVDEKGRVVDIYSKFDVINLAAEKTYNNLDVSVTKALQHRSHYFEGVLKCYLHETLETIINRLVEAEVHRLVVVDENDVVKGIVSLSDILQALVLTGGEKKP

SMILES | phototoxicity test [1] | EC150 (compound concentration showing 150% relative to the control (100%)) [2] | Emax [2]
Clc1cc2[nH]c(O[C@@H]3CO[C@@H]4CCO[C@@H]43)cc2nc1-c1ccc(N2CCOCC2)cc1 [Compound I-3-37] | negative |  | 
O[C@@H]1CO[C@H]2[C@@H]1OC[C@H]2Oc1cc2nc(-c3c(F)cc(C4=CCOCC4)cc3F)ccc2[nH]1 [Compound I-3-32] |  | 2.6 nM | 661%
Cc1ccc(Oc2cc3nc(-c4ccc(N5CCOCC5)cc4)c(Cl)cc3[nH]2)cc1C(=O)O [Compound I-3-50] |  | 63 nM | 435%
CC(=O)NC/C=C/c1ccc(-c2cc3c(C#N)c(O[C@@H]4CO[C@H]5[C@@H]4OC[C@H]5O)[nH]c3cc2Cl)cc1 [Compound I-2-9] |  | 34 nM | 503%
CC(C)(CO)C(=O)N1CCC(Oc2cc3nc(-c4ccc(C5=CCC(C(=O)O)CC5)cc4)c(Cl)cc3[nH]2)CC1 (stereo not shown) [Compound I-3-38] |  |  | 560%
O[C@@H]1CO[C@H]2[C@@H]1OC[C@H]2Oc1cc2nc(-c3ccc(N4CCOCC4)cc3)c(Cl)cc2[nH]1 [Compound I-3-15] |  | 1.9 nM | 559%
CC(=O)NC(C)(C)c1ccc(Oc2cc3nc(-c4c(F)cc(N5CCOCC5)cc4F)ccc3[nH]2)cc1 [Compound I-3-9] |  | 39 nM | 446%
Cc1ccc(Oc2[nH]c3cc(Cl)c(-c4ccc(N5CCOCC5)cc4)cc3c2C#N)cc1C(=O)O [Compound I-1-6] |  | 76 nM | 618%
N#Cc1c(O[C@@H]2CO[C@H]3[C@@H]2OC[C@H]3O)[nH]c2ccc(-c3c(F)cc(C4=CCOCC4)cc3F)nc12 [Compound I-3-45] |  | 26 nM | 694%
CC(C)(CO)C(=O)N1CCC(Oc2cc3nc(-c4ccc(N5CCOCC5)cc4)c(Cl)cc3[nH]2)CC1 [Compound I-3-28] |  | 54 nM | 510%
N#Cc1c(O[C@@H]2CO[C@H]3[C@@H]2OC[C@H]3O)[nH]c2cc(Cl)c(-c3ccc(C4=CCC(C(=O)O)CC4)cc3)cc12 (stereo partly shown) [Compound I-1-8] |  | 39 nM | 580%
O[C@@H]1CO[C@H]2[C@@H]1OC[C@H]2Oc1cc2nc(-c3ccc(-c4ccccc4)cc3)c(Cl)cc2[nH]1 [Compound I-3-18] |  | 4.1 nM | 489%
N#Cc1c(O[C@@H]2CO[C@H]3[C@@H]2OC[C@H]3O)[nH]c2cc(Cl)c(-c3ccc(C4=CCN(C(=O)CO)CC4)cc3)cc12 [Compound I-1-9] |  | 20 nM | 559%
CC(C)(C(=O)O)[C@H]1CC[C@H](Oc2cc3nc(-c4ccc(N5CCOCC5)cc4)c(Cl)cc3[nH]2)CC1 [Compound I-3-22] |  | 120 nM | 264%
CC(=O)NC1CC=C(c2ccc(-c3nc4cc(O[C@@H]5CO[C@H]6[C@@H]5OC[C@H]6O)[nH]c4cc3Cl)cc2)CC1 (stereo partly shown) [Compound I-3-46] |  | 0.48 nM | 750%
CS(=O)(=O)NC1CC=C(c2ccc(-c3nc4cc(O[C@@H]5CO[C@H]6[C@@H]5OC[C@H]6O)[nH]c4cc3Cl)cc2)CC1 (stereo partly shown) [Compound I-3-47] |  | 0.76 nM | 727%
Cc1ccc(Oc2nc3nc(-c4ccc(N5CCOCC5)cc4)c(Cl)cc3[nH]2)cc1C(=O)O [A−1, reference compound] |  | 130 nM | 394%
N#Cc1cc2[nH]c(O[C@@H]3CO[C@H]4[C@@H]3OC[C@H]4O)c(C#N)c2cc1-c1ccc(N2CCOCC2)cc1 [Compound I-2-17] |  | 98 nM | 587%
N#Cc1c(O[C@@H]2CO[C@H]3[C@@H]2OC[C@H]3O)[nH]c2ccc(-c3c(F)cc(N4CC[C@@H](O)C4)cc3F)nc12 [Compound I-3-49] |  | 18 nM | 848%
O[C@@H]1CO[C@H]2[C@@H]1OC[C@H]2Oc1cc2nc(-c3c(F)cc(N4CCOCC4)cc3F)c(F)cc2[nH]1 [Compound I-3-24] |  | 8.8 nM | 729%
O=C(O)C1CC=C(c2ccc(-c3nc4cc(O[C@@H]5CO[C@H]6[C@@H]5OC[C@H]6O)[nH]c4cc3Cl)cc2)CC1 (stereo partly shown) [Compound I-3-21] |  | 0.21 nM | 787%
